Molecular target: T1, NOD2 (Homo sapiens, UniProt Q9HC29)
T1 construct: host or cells: HEK293 / HEK293T cells carrying a NOD2-responsive luciferase reporter
Test: NOD2 activity by luciferase assay in HEK293 cells
Type: cell-based
Details: 10 ng/ml MDP control, 24 hours, untreated = 1.00
Method: Existing literature has reported that the protective effect of lactic acid bacteria on inflammatory bowel disease results from the anti-inflammatory effect of NOD2, which is an innate immune receptor protein. […] Specifically, HEK293 cells were treated with 1 MOI of several types of lactic acid bacteria, which had been transduced to generate luciferase by transcription of the luciferase gene through the stimulation of NOD2. For a control with respect to cell activity, HEK293 cells were treated with 10 ng/ml muramyl dipeptide (MDP) capable of stimulating NOD2 and then cultured in a cell incubator for 24 hours. Thereafter, the NOD2 activity was determined by luciferase assay on the luciferase generated from cell rupture. MDP, which is a component of the peptidoglycan constituting the cell wall of bacteria, is a ligand that directly acts on NOD2, and this was used as a control.

T1 sequence (Q9HC29 whole entry): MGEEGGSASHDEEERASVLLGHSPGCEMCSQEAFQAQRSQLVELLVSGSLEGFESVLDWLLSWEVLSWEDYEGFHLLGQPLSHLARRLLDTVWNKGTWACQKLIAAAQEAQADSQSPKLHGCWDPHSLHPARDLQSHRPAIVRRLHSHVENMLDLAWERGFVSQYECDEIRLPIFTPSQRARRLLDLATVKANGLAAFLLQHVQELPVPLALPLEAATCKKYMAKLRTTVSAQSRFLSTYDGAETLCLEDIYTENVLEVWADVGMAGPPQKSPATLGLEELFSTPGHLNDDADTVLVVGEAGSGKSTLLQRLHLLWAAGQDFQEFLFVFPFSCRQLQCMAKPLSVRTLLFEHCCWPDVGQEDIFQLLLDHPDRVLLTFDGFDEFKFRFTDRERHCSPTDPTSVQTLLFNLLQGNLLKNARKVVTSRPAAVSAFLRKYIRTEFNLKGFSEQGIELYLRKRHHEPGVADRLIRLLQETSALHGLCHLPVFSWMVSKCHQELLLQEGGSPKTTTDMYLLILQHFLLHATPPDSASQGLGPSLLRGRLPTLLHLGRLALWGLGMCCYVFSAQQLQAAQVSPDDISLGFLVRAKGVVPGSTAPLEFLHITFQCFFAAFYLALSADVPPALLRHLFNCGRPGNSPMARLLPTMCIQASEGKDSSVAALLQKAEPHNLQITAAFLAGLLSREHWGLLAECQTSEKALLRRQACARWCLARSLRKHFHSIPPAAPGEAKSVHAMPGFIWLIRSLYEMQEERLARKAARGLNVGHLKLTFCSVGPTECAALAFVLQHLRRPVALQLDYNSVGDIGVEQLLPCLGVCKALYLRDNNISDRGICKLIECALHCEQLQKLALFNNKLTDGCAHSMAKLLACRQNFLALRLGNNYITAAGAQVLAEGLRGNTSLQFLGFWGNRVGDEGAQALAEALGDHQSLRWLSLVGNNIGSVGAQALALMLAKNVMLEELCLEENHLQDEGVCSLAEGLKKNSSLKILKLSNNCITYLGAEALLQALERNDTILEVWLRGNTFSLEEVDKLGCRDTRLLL

CC(=O)N[C@H]1C(O)O[C@H](CO)[C@@H](O)[C@@H]1O[C@H](C)C(=O)N[C@@H](C)C(=O)N[C@H](CCC(=O)O)C(N)=O (mixture of isomers) [MDP, muramyl dipeptide]
NOD2 Activity: 40.70

Reference: US12496319B2 (INDUSTRY FOUNDATION OF CHONNAM NATIONAL UNIVERSITY, priority 2020, dated 2025)
